As usually defined, the pIC50 is the IC50 on a negative log10 scale, so that one unit is a factor of ten.

Drawing on BindingDB's records for doi:10.1016/j.bmcl.2016.04.011 (The University of Jordan, 2016), this text covers IC50 for 8 compounds.

pIC50: −log10 of the molar value.

Assay [1] can be described thus: Inhibition of EGFR in human MDA231 cells assessed as growth inhibition after 24 hrs by MTT assay. Background: Formazan colour is commonly taken as a measure of viable cells.
A short description of assay [2]: Inhibition of PI3Kalpha in human HCT116 cells coexpressing PI3Kalpha H1047R mutant assessed as growth inhibition after 24 hrs by MTT assay.

Regarding `O=C(Nc1cccc(C(O)c2ccccc2)c1)c1cc2ccccc2[nH]1` (stereo unspecified), the pIC50 in assay [1] is 4.82; in assay [2] it was 4.72.

`O=C(c1ccccc1)c1ccc(NC(=O)c2cc3ccccc3[nH]2)cc1`: the pIC50 is 4.31 in assay [1] and 4.27 in assay [2].

For the compound `CC(=O)c1ccc(NC(=O)c2cc3ccccc3[nH]2)cc1`, the pIC50 in assay [1] was 4.30; in assay [2], 4.21.

In the case of `CC(O)c1ccc(NC(=O)c2cc3ccccc3[nH]2)cc1` (stereo unspecified), the pIC50 in assay [1] was 4.46; in assay [2], 4.43.

As to `O=C(c1ccccc1)c1cccc(NC(=O)c2cc3ccccc3[nH]2)c1`, the results for the pIC50 in assay [1] and in assay [2] were 4.35 and 4.26, respectively.

`CC(=O)c1cccc(NC(=O)c2cc3ccccc3[nH]2)c1`: the pIC50 in assay [1] is 4.24; in assay [2], 4.19.

As for `CC(O)c1cccc(NC(=O)c2cc3ccccc3[nH]2)c1` (stereo unspecified), the pIC50 in assay [1] was 4.47; in assay [2], 4.42.

Take `O=C(Nc1ccc(C(O)c2ccccc2)cc1)c1cc2ccccc2[nH]1` (stereo unspecified): the pIC50 was 4.42 in assay [1] and 4.36 in assay [2].
